Reference: PMC6804243, “Small-Molecule Inhibition of UBE2T/FANCL-Mediated Ubiquitylation in the Fanconi Anemia Pathway” (ACS Chemical Biology, 2019)
“Also recorded” adds a separate entry of the source.

Test system: FANCD2 foci and γH2AX in U2OS cells
Assay: High-throughput high content indirect immunofluorescence (FANCD2 foci, γH2AX)
Format: cell-based
Conditions: for γH2AX positive cells / γH2AX levels: CU1 200 μM or CU2 500 μM in combination with HU (2.5 mM, 8 h) or cisplatin (10 μM, 8 h); for H2AX positive nuclei, Experiment 1 / H2AX positive nuclei, Experiment 2 / H2AX positive nuclei, Experiment 3: CU1 200 μM, raw data; for H2AX positive nuclei, Experiment 1 / H2AX positive nuclei, Experiment 2 / H2AX positive nuclei, Experiment 3 / H2AX positive nuclei, Totals: CU2 500 μM, HU 2.5 mM 8 h, cisplatin 10 μM 8 h; for number of FANCD2 foci per cell: 8 h, CU1 200 μM or CU2 500 μM; for H2AX positive nuclei, Totals: sum of experiments 1-3, CU1 200 μM
Description: In response to DNA damage, mUb-FANCD2 accumulates at sites of DNA lesions to form foci, promote DNA-damage sensing, activate cell-cycle checkpoints, and promote DNA repair.[23] Therefore, we employed high-throughput high-content indirect immunofluorescence studies to examine the effect of CU1 and CU2 on mUb-FANCD2 focus formation. The experimental format used was similar to the immunoblot-based experiments, excepting that, following treatment with HU (2.5 mM for 8 h) or cisplatin (10 μM for 8 h), cells were fixed, permeabilized and stained with specific FANCD2 primary and fluorescent secondary antibodies. In addition to monitoring mUb-FANCD2 foci, γH2AX was evaluated as a marker of DNA damage induction, and cell nuclei were visualized by 4′,6-diamidino-2-phenylindole (DAPI) staining. […] These observations are in accord with the immunoblot-based experiments wherein reductions in mUb-FANCD2 were observed (Figure 3a).
Figure 4 Further cell-based assays with CU1 and CU2: (a, b) Representative immunofluorescence images of U2OS cells treated with HU (2.5 mM, 8 h) or cisplatin (10 μM, 8 h) in the presence or absence of CU1 (200 μM) or CU2 (500 μM). (c) Quantification of the number of FANCD2 foci in cells treated as in panels (a) and (b). Data accumulated over three independent experiments, each consisting of three technical replicas. (d) IncuCyte analysis of U2OS cells treated with or without carboplatin (15 μM) and CU2 (250 μM). Mean calculated from three wells, four images per well. (HU = DMSO + HU, cisplatin = DMSO + cisplatin). […]
buffer (1 hour at room temperature) followed by three washes with PBST. Cells were then counterstained with DAPI (25 µg/mL) and mounted using Vectashield […]
High-throughput high content indirect immunofluorescence. U2OS cells, seeded in a 96-well plate, were treated with compound for 1 hour followed by 2.5 mM HU or 10 µM cisplatin for 8 hours. Cells were washed 3 times with wash buffer (1xPBS, 0.1% Tween-20) before being fixed in 2% paraformaldehyde (w/v) for 20 minutes at 23 °C. The cells were then washed a further 3 times in wash buffer before being stored overnight at 4°C in the final wash. Next day, the cells were permeabilized using 1xPBS, 0.5% Triton X-100 for 15 minutes at 23 °C and then washed 3 times with wash buffer before blocking with 5% BSA in 1xPBS, 0.1% Tween-20 for 30 minutes at 23 °C. After washing 3 times with wash buffer, the cells were incubated for 1 hour at 23 °C in the presence of primary antibodies (1:50 FANCD2, Santa Cruz, mouse monoclonal and 1:250 γH2AX, Cell Signalling, rabbit) in 5% BSA in wash buffer. After incubation in the presence of primary antibodies, the cells were washed 3 times with wash buffer before being incubated with secondary antibodies in 5% BSA in wash buffer for 1 hour in the dark at 23 °C. The secondary antibodies used were goat anti-mouse AlexaFluor 488 and goat anti-rabbit AlexaFluor 594 (both from Molecular Probes, Invitrogen). The cells were then washed a further 3 times with wash buffer before being stained in the presence of 2 µg/ml DAPI (Sigma D9542) in wash buffer for 10 minutes in the dark at 23 °C. After DAPI staining, the cells were washed 3 more times with wash buffer and stored in the final wash until ready for imaging.
A spinning-disk Opera PhenixTM (Perkin Elmer) microscope equipped with a 40x water immersion objective was employed to acquire 10 confocal images for each well in a single optimized focal plane comprising three fluorescence channels: 405, 488 and 568 nm for DAPI, Alexa Fluor 488 and Alexa Fluor 594, respectively. Image analysis and evaluation was done using Harmony High-Content Imaging and Analysis software. DAPI staining (405 nm) was used to segment nuclei, which were further gated for the presence of γH2AX staining

[1] = in the presence of HU 2.5 mM, relative to HU alone
[2] = in the presence of cisplatin 10 μM, relative to cisplatin alone

NCCN1C(=O)CC[C@H]2CN(Cc3cccc(-c4ccco4)c3)CC[C@H]21 [CU1]
γH2AX positive cells / γH2AX levels: no reduction in γH2AX positive cells; also recorded: do not significantly affect | H2AX positive nuclei, Experiment 1: 40 | H2AX positive nuclei, Experiment 2: 279 | H2AX positive nuclei, Experiment 3: 126 | number of FANCD2 foci per cell [1]: clear reduction in the number of FANCD2 foci per cell | number of FANCD2 foci per cell [2]: clear reduction in the number of FANCD2 foci per cell | H2AX positive nuclei, Totals: 445

CCN1CCN(c2cc(C)nc3nc(CN4CCCCC4C)nn23)CC1 (centres unmarked) [CU2]
γH2AX positive cells / γH2AX levels: no reduction in γH2AX positive cells; also recorded: do not significantly affect | H2AX positive nuclei, Experiment 1: 56 | H2AX positive nuclei, Experiment 2: 303 | H2AX positive nuclei, Experiment 3: 79 | number of FANCD2 foci per cell [1]: clear reduction in the number of FANCD2 foci per cell | number of FANCD2 foci per cell [2]: clear reduction in the number of FANCD2 foci per cell | H2AX positive nuclei, Totals: 438
